From the supplement of paper PMC13380429

Key:
Settings in all cases: 72 h
Caco-2 [1] = experiment: cell viability relative to DMSO; higher = less toxic
HepG2 [2] = experiment: as above
U2OS [3] = experiment: as above
Calu-3 [4] = experiment: as above
Caco-2 [5] = experiment: relative viability EC50 (midpoint between 100% and the lowest measured viability); higher = less toxic
HepG2 [6] = experiment: as above
U2OS [7] = experiment: as above
Calu-3 [8] = experiment: as above
Caco-2 [9] = experiment: drug sensitivity score (DSS) for viability; higher = more toxic; extreme values may be limits of the assay
HepG2 [10] = experiment: as above
U2OS [11] = experiment: as above
Calu-3 [12] = experiment: as above
Vero E6 [13] = experiment: cell viability relative to DMSO; higher = less toxic
Vero E6 [14] = experiment: relative viability EC50 (midpoint between 100% and the lowest measured viability); higher = less toxic
Vero E6 [15] = experiment: drug sensitivity score (DSS) for viability; higher = more toxic; extreme values may be limits of the assay

SMILES | cell viability (Caco-2 [1]; 1 nM) [%] | cell viability (Caco-2 [1]; 10 nM) [%] | cell viability (Caco-2 [1]; 100 nM) [%] | cell viability (Caco-2 [1]; 1000 nM) [%] | cell viability (Caco-2 [1]; 10000 nM) [%] | cell viability (HepG2 [2]; 1 nM) [%] | cell viability (HepG2 [2]; 10 nM) [%] | cell viability (HepG2 [2]; 100 nM) [%] | cell viability (HepG2 [2]; 1000 nM) [%] | cell viability (HepG2 [2]; 10000 nM) [%] | cell viability (U2OS [3]; 1 nM) [%] | cell viability (U2OS [3]; 10 nM) [%] | cell viability (U2OS [3]; 100 nM) [%] | cell viability (U2OS [3]; 1000 nM) [%] | cell viability (U2OS [3]; 10000 nM) [%] | cell viability (Calu-3 [4]; 1 nM) [%] | cell viability (Calu-3 [4]; 10 nM) [%] | cell viability (Calu-3 [4]; 100 nM) [%] | cell viability (Calu-3 [4]; 1000 nM) [%] | cell viability (Calu-3 [4]; 10000 nM) [%] | relative viability EC50 (Caco-2 [5]) [µM] | relative viability EC50 (HepG2 [6]) [µM] | relative viability EC50 (U2OS [7]) [µM] | relative viability EC50 (Calu-3 [8]) [µM] | drug sensitivity score (Caco-2 [9]) | drug sensitivity score (HepG2 [10]) | drug sensitivity score (U2OS [11]) | drug sensitivity score (Calu-3 [12]) | cell viability (Vero E6 [13]; 1 nM) [%] | cell viability (Vero E6 [13]; 10 nM) [%] | cell viability (Vero E6 [13]; 100 nM) [%] | cell viability (Vero E6 [13]; 1000 nM) [%] | cell viability (Vero E6 [13]; 10000 nM) [%] | relative viability EC50 (Vero E6 [14]) [µM] | drug sensitivity score (Vero E6 [15])
C[C@H](N)C(=O)N[C@@]1(C(=O)O)C[C@@H](Sc2nnc[nH]2)[C@H]2[C@H](C(=O)O)[C@H]21 | 108 | 100 | 103 | 98.9 | 101 | 101 | 94.7 | 99.6 | 110 | 91 | 105 | 96.9 | 105 | 100 | 104 | 102 | 92.6 | 96.1 | 114 | 110 | > 10 | > 10 | > 10 | > 10 | 0 | 0 | 0 | 0 | – | – | – | – | – | – | –
Cc1cc(C)c(CNC(=O)c2cc(-c3ccc(CN4CCOCC4)cc3)cc3c2cnn3C2CCCC2)c(=O)[nH]1 | 102 | 94.2 | 96.4 | 91.1 | 92 | 108 | 102 | 100 | 97.3 | 85.3 | 99 | 94.5 | 101 | 94.4 | 98.7 | 98 | 96.9 | 104 | 92 | 96.3 | > 10 | > 10 | > 10 | > 10 | 0 | 0.5 | 0 | 0 | – | – | – | – | – | – | –
Cc1cc(C)c(N)c(C#Cc2cccc(F)c2)n1 | 99.6 | 88.9 | 101 | 93.2 | 71.6 | 95.3 | 98.4 | 81.6 | 88.1 | 90.7 | 102 | 97.5 | 102 | 97.3 | 90.9 | 104 | 102 | 95.9 | 102 | 87.7 | – | > 10 | > 10 | > 10 | 2.2 | 0.7 | 0 | 0 | 99.5 | 106 | 98.6 | 103 | 90.8 | > 10 | 0
Cc1cnc(NC(=O)Nc2cc(Br)c(C)cc2OC[C@@H]2CNCCO2)cn1 | 102 | 94.7 | 96.9 | 87.5 | 37.8 | 106 | 104 | 97.9 | 59.1 | 33.7 | 100 | 99.2 | 98 | 62.2 | 4.8 | 90.7 | 106 | 102 | 76.9 | 63 | 1.73 | 0.764 | 1.2 | – | 5.4 | 8.6 | 10.2 | 4.5 | 101 | 105 | 102 | 97.2 | 71.1 | – | 1.7
Cc1nc2ccc(-n3ncc(C(=O)c4cc5ccccc5[nH]4)c3N)cc2[nH]1 | 100 | 94.5 | 92.9 | 86.4 | 89.3 | 94.6 | 99 | 87.3 | 104 | 76.2 | 99 | 94.5 | 97.8 | 84.1 | 84.3 | 100 | 86.9 | 98.4 | 87.6 | 84.7 | > 10 | > 10 | > 10 | > 10 | 0.8 | 0.7 | 1.9 | 0.7 | 96.5 | 96 | 93.6 | 89.4 | 69 | – | 2.2
Nc1nc(NCCc2ccc(O)cc2)nc2nc(-c3ccco3)nn12 | 97.2 | 94.5 | 103 | 104 | 72.5 | 109 | 98.6 | 103 | 49.2 | 32.2 | 99.5 | 103 | 102 | 103 | 94.5 | 96.1 | 110 | 97.3 | 98.2 | 106 | – | 0.648 | > 10 | > 10 | 0.9 | 9.7 | 0 | 0 | 95.1 | 95.3 | 98.1 | 94.6 | 95 | > 10 | 0
FC(F)(F)Oc1ccc2nc(-c3ccc(OCCOCCOc4ccc(-c5nc6ccc(OC(F)(F)F)cc6[nH]5)nc4)cn3)[nH]c2c1 [AI-10-49] | 95.2 | 95.4 | 90.9 | 82 | 56.7 | 94.7 | 93.6 | 103 | 74.6 | 18.7 | 98.5 | 98.6 | 101 | 90.5 | 80.7 | 109 | 95.7 | 98.2 | 98.3 | 93.3 | – | 1.37 | > 10 | > 10 | 4.2 | 8.2 | 1.5 | 0 | 102 | 97 | 93.3 | 72.8 | 56.2 | – | 5.6
c1ccc(-c2oc3ncnc(NC[C@@H]4CCCO4)c3c2-c2ccccc2)cc1 [AIM-100] | 115 | 92.6 | 96.6 | 104 | 71.3 | 83.4 | 98.6 | 99.8 | 97.4 | 95.6 | 103 | 102 | 105 | 101 | 95.5 | 106 | 92.2 | 96.6 | 97.7 | 74.7 | – | > 10 | > 10 | – | 1 | 0 | 0 | 1.3 | 90.2 | 98.6 | 96.6 | 87.2 | 95.9 | > 10 | 0
COCCOc1cnc2ccn([C@H](C)c3nnc4c(F)cc(-c5cnn(C)c5)cn34)c(=O)c2c1 [AMG-337] | 104 | 103 | 92.9 | 101 | 97.2 | 100 | 102 | 99.2 | 91.5 | 93.5 | 93 | 99.1 | 102 | 98 | 100 | 101 | 89 | 98.4 | 114 | 95.2 | > 10 | > 10 | > 10 | > 10 | 0 | 0 | 0 | 0 | – | – | – | – | – | – | –
C#CC[C@H](c1nc2cc(Cl)ccc2c(=O)n1Nc1ccccc1)N(CCCN)C(=O)c1cccc(Cl)c1F [ARQ-621] | 101 | 96.6 | 93.6 | 81.7 | 73 | 93.7 | 100 | 94.5 | 62.2 | 26.6 | 103 | 98.9 | 101 | 93.4 | 42.3 | 105 | 101 | 104 | 86.7 | 78 | – | 0.929 | 2.23 | > 10 | 3.1 | 8.5 | 4.2 | 2.1 | 102 | 100 | 96.2 | 101 | 54.9 | – | 2.3
CNC(=O)CN1CCC(Oc2cc3c(Nc4cccc(Cl)c4F)ncnc3cc2OC)CC1 [AZD8931] | 96.5 | 93.7 | 90.2 | 77.7 | 65.5 | 106 | 95.7 | 87.8 | 95.2 | 85.2 | 95.4 | 94.8 | 93.6 | 89.6 | 87.9 | 109 | 80.5 | 60.7 | 33.8 | 22.5 | – | > 10 | > 10 | 0.0843 | 4.6 | 0.5 | 0.1 | 18.2 | 97.2 | 97.7 | 78.3 | 58.5 | 42.1 | 0.233 | 10.2
Cc1cc(-c2nc(-c3ccc(OC(F)(F)F)cc3)no2)nn1Cc1ccnc(N2CCN(C3CC3)CC2)c1 [BAY-87-2243] | 99.4 | 99 | 73.7 | 74.7 | 71.1 | 93.1 | 50.4 | 20.8 | 17.8 | 18.7 | 97.3 | 95.3 | 81.5 | 73.5 | 66.6 | 98.5 | 94.4 | 92.9 | 87.7 | 92 | – | 0.0071 | – | > 10 | 8 | 31.4 | 6.5 | 0.2 | 95.8 | 98.8 | 94.3 | 91 | 85.1 | > 10 | 0.4
O=C1c2ccccc2CCC1CNCCc1ccc(O)cc1 (centres undefined) [BE-2254] | 104 | 100 | 99.5 | 104 | 98 | 114 | 96 | 96.7 | 103 | 39.1 | 95.8 | 97.3 | 100 | 99.3 | 95.5 | 106 | 93.3 | 95.7 | 101 | 96.2 | > 10 | 3.45 | > 10 | > 10 | 0 | 3 | 0 | 0 | – | – | – | – | – | – | –
COc1ccc2c(c1)c(CC(=O)N1CCOCC1)c(C)n2C(=O)c1ccc(Cl)cc1 [BML-190] | 91.4 | 109 | 96.7 | 101 | 85.6 | 102 | 102 | 104 | 88 | 94.8 | 96.2 | 101 | 106 | 99.3 | 112 | 106 | 106 | 92.7 | 108 | 96.9 | > 10 | > 10 | > 10 | > 10 | 0.2 | 0.5 | 0 | 0 | – | – | – | – | – | – | –
Cc1nc(C#Cc2ccnc(Cl)c2)c(C)n1-c1ccc(OC(F)(F)F)cc1 [CTEP] | 93.9 | 107 | 86.9 | 84.6 | 55.8 | 100 | 88.6 | 100 | 91.5 | 85.1 | 94.6 | 98.2 | 95.5 | 100 | 58.2 | 99.2 | 101 | 93 | 96.5 | 92.3 | – | > 10 | – | > 10 | 4 | 0.2 | 2.1 | 0 | 102 | 100 | 91.8 | 102 | 94.5 | > 10 | 0
